# Measurements reported in patent publication US9828344B2, “Inhibitors of the notch signaling pathway and secretion for use in medicine” (Leibniz-Institut für Altersforschung Fritz-Lipmann-Institut …, priority 2012, dated 2017).
# Key:
# endocytosis = assay: Transferrin uptake assay; format: cell-based
# Protocol: FIG. 13: FLI-06 causes dispersal of early Golgi and TGN, but no tubulation of endosomes. Hela cells were incubated with DMSO or 10 iM FLI-06 or 1 ig/ml BFA for 18 h, fixed, stained with antibodies as indicated and imaged by fluorescence microscopy. Endosomes were visualized by adding Alexa555-labelled transferrin on ice and chasing for 15 min at 37° C. in the presence of indicated compounds. Arrows indicated tubulating endosomes, scalebar 10 im.
# For the transferrin uptake assay cells were starved in serum free medium for 1 h at 37° C. Cells were then transferred on ice and medium was exchanged to serum free medium supplemented with 25 μg/ml AlexaFluor555-Transferrin conjugate (Molecular Probes) and test compounds. After 15 min on ice cells were incubated with pre-warmed serum-supplemented medium containing test compounds and incubated at 37° C.
# Golgi apparatus = assay: Immunofluorescence of Golgi and early secretory pathway markers in HeLa cells; format: cell-based
smiles,measurement,setting,value
"CC1=C(C(=O)OC2CCCCC2)C(c2ccc([N+](=O)[O-])cc2)C2=C(CC(C)(C)CC2=O)N1 (stereo not shown) [FLI-06, Cyclohexyl 4-(4′-nitrophenyl)-2,7,7-trimethyl-5-oxo-1,4,5,6,7,8-hexahydroquinoline-3-carboxylate]",endocytosis of transferrin,endocytosis,did not affect endocytosis
same,Golgi integrity (giantin),"Golgi apparatus; 10 μM, 18 h",complete disruption of the Golgi
same,time to loss of Golgi-like juxtanuclear βCOP staining,Golgi apparatus; 1 ig/ml BFA or 10 iM FLI-06,30 to 40 min
same,distribution of GM130 and TGN46,"Golgi apparatus; 10 iM FLI-06 or 1 ig/ml BFA, 18 h",dispersal of the cis-Golgi marker GM130 and of the trans-Golgi network (TGN) marker TGN46
same,hyperglycosylation of VSVG-EGFP,Golgi apparatus; 4 h at 40° C. with cycloheximide,did not cause a hyperglycosylation
same,tubulation of endosomes,Golgi apparatus; Alexa555-transferrin labelled endosomes,did not cause tubulation of endosomes
same,fusion of ER and Golgi,Golgi apparatus; prlss-KDEL-mRFP and B4GALT-EGFP markers,did not lead to fusion of ER and Golgi
